According to patent US20040266811A1, “Methods for inducing regeneration, remyelination, and hypermyelination of nervous tissue” (priority 2002, published 2004):
Several values for one entry are separate records, joined by “and”; a condition that tells them apart may be missing. Equal values may be shown once. Entries after “also recorded” stand apart in the source; their conditions may differ.

Columns and labels:
DRG explants = experiment: DRG explant neurite outgrowth with anti-NGF neutralizing antibodies or MEK1 inhibitor; format: cell-based, C57B1/6 mice; conditions: DRGs cultured in 1 μM GM-284 plus inhibitor
Protocol: (A) DRGs were prepared and cultured as above, except that either the MEK1 inhibitor, PD 098059, or NGF-neutralizing antibodies were included in cultures treated with either NGF or GM-284. Maximal response was determined to be the extent of neurite outgrowth when DRGs were cultured in NGF alone (spotted bars) or in 1 μM GM-284 (striped bars). As indicated, DRGs were treated with either NGF or GM-284, in the presence of either 0.25 mg/ml anti-NGF neutralizing antibodies or PD 098059. […] DRGs were treated with 100 ng/ml NGF or 1 μM GM-284, for 30 min or 4 h, as indicated, and the detergent lysates were prepared and immunoblotted with anti-phospho-Erk monoclonal antibody. The p42 and p44 bands are indicated by arrowheads.
Explanted DRG ganglia were dissected from P1 to P3 C57B1/6 mice, as previously described (Weinstein et al., Targeted expression of an oncogenic adaptor protein v-Crk potentiates axonal growth in dorsal root ganglia and motor neurons in vivo. Brain Res. Dev. Brain Res., 116:29-39, 1999). Briefly, DRGs were dissected and placed in ice-cold PBS containing 2% glucose, then transferred onto polyornithine/laminin-coated tissue culture plates (Biocoat, Becton Dickinson Laboratories) in DMEM-plating medium overnight. The plating medium consisted of Dulbecco's minimal essential plating medium (DMEM) supplemented with 10% fetal calf serum (FCS; Hyclone), 0.6% glucose, 2 mM glutamine, 100 U/ml penicillin, 100 μg/ml streptomycin, and 20 mM HEPES. […] For experiments employing anti-NGF neutralizing antibodies, cultures were incubated with […] anti-NGF antiserum, and replaced every two days. Cultures were kept at 37° C., in 5% CO2, for up to 1 week, at which time the extent of well-defined neurite outgrowth was assessed.
Signaling by the neurotrophins, while mediated by different cell-surface receptors, converges on the extensively studied and well-characterized MAP kinase pathway. […] Therefore, the inventors explored the possibility that GM-284 might signal through NGF directly, or through the MAP kinase cascade. […]

crushed sciatic nerve = experiment: Sciatic nerve crush and regeneration (electron microscopy morphometry); format: in vivo, adult, outbred ICR mice
Protocol: (A) The sciatic nerves of adult, outbred ICR mice were crushed, as previously described (Gondre et al., Accelerated nerve regeneration mediated by Schwann cells expressing a mutant form of the POU protein SCIP. J. Cell Biol., 141:493-501, 1998). Following the surgery, the animals were randomized into treatment groups of either GM-284 (10 mg/kg) or vehicle. At the end of 30 days, the animals were sacrificed, their sciatic nerves were prepared for electron microscopy, and subsequently evaluated for the extent of both axonal and myelin regeneration. All sampling was done at the same proximal-distal levels, and approximately 5 mm below the crush site. […] (B) Quantitative analysis of both axonal and myelin growth in response to GM-284 treatment was carried out by digitizing the images in (A), and determining the axonal and myelin volumes, calculated in voxels.
Mice were anesthetized (i.p.) with 0.5 cc of 2.5% Avertin/saline, before perfusion via the left ventricle. The animals were perfused for 30 min at 37° C., with a rat Ringer's solution containing heparin (2.0 ml/L; stock=10,000 units/ml) and 2% lidocaine (3.0 ml/L), followed by perfusion for 7-10 min with 2% glutaraldehyde/1% paraformaldehyde in 0.15 M sodium cacodylate, pH 7.2. Approximately 1 cm of sciatic nerve was dissected from the hind leg (from the hip to the knee), and split into 3 sections (proximal, medial, and distal). A 2-mm length was taken from each of the three sections, then immersion fixed. The primary fixation was carried out for 2-4 h total, at 4° C., with 2% glutaraldehyde/1% paraformaldehyde in 0.15 M sodium cacodylate buffer, pH 7.2. Tissues were rinsed 6 times, for 20 min each, then rinsed overnight at 4° C. in 0.15 M sodium cacodylate buffer, pH 7.2.
Secondary fixation was carried out for 4 h at 4° C. in 1% osmium-tetroxide/1.5% potassium-ferrocyanide in 0.15 M sodium cacodylate buffer, pH 7.2. Tissues were rinsed 3 times, for 10 min each, in Millipore-filtered water at 4° C., then stained en bloc in 2% uranyl acetate (aq) at 4° C. for 1 h. At this point, the tissues were dehydrated once for 8 min in a graded ethanol series starting with water, 30%, 50%, 70%, 95%, and then dehydrated twice, for 10 min each, in 100% ethanol and then in propylene oxide. After dehydration, the nerve tissue was infiltrated with propylene oxide/Durcupan (Fluka Chemika-BioChemika, Ronkonkoma, N.Y.), in a 25/75 ratio, for 60 min at room temperature. This was followed by infiltration three times, for 120 min each, in Durcupan resin at room temperature. Sciatic nerves were flat-embedded in fresh Durcupan resin, and polymerized for 24-36 h at 65° C. 1-μM-thick sections were stained with Toluidine blue. Silver sections were cut on a Diatome diamond knife, and stained with 2% uranyl acetate for 30 min at room temperature, and with Reynold's lead citrate for 7 min. Thin sections were viewed at 60 kv, and photographed on a JEOL 100 CX conventional transmission electron microscope.
Deep anesthesia was obtained with i.p. injection of Avertin. Electrophysiology recordings were obtained, as previously described (Bieri et al., Abnormal nerve conduction studies in mice expressing a mutant form of the POU transcription factor SCIP. J. Neurosci. Res., 50:821-28, 1997). Immediately afterward, the right sciatic nerve of each animal was exposed and crushed 2 times, for 30 sec each, using a #5 Dumont forceps. In brief, the skin was prepped bilaterally prior to electrophysiologic testing. […]

[1] = 10 mg/kg daily, one month after crush

In the case of CCC(C)(C)C(=O)C(=O)N1CCC[C@H]1c1nnc([C@@H]2CCCN2C(=O)C(=O)C(C)(C)CC)o1 [GM-284], the “effect of anti-NGF / MEK1 inhibition on GM-284-mediated neurite outgrowth” value (DRG explants) is reported as “NGF- and MEK1-independent”, the “increase in myelin (volume in voxels)” value (crushed sciatic nerve; [1]) is reported as roughly 3 fold and the “increase in the size of myelinated axons” value (crushed sciatic nerve; [1]) is reported as 3- to 4 fold and 4 fold. For the same compound, the “histology of regenerated sciatic nerve” value (crushed sciatic nerve; 10 mg/kg daily, one month after crush, electron microscopy) was “induced both axonal hypertrophy and a global over-elaboration of the myelin organelle; also recorded: enhanced axonal regeneration; also recorded: clear axonal hypertrophy, as well as hypermyelination; also recorded: hypermyelination and axonal hypertrophy”, the “ratio of axonal volume to myelin volume” value (crushed sciatic nerve; GM-284-treated group, NIH Image) was 0.2 and the “increase in myelin volume, relative to each axon” value (crushed sciatic nerve; vs vehicle, p<0.0001) was 20 fold.
